# Data published in patent publication US6812365B2, “Disulfone reagents and methods of preparing and using same” (The Arizona Disease Control Research Commission, priority 1999, dated 2004).
# Target: T1, HIV integrase (HIV-IN) (Human immunodeficiency virus type 1 group M subtype B, UniProt P04585)
# T1 construct: employs a purified recombinant integrase
# Test: in vitro HIV integrase inhibition assay (3′-processing and DNA strand transfer, purified recombinant integrase, 21-mer duplex oligonucleotide substrate)
# Type: biochemical
# Details: cell-free assay, 50% reduction in enzymatic activity; read-out: IC50 values against HIV-IN
# Excerpt: Generally, a particular compound's HIV integrase inhibitory potency can be measured by observing the effects of that compound on the integrase enzyme's catalytic activity. HIV integrase has two catalytic functions: (1) 3′-processing, which removes a dinucleotide unit from the 3′-ends of viral DNA; and (2) DNA strand transfer, which […]. These two catalytic steps can be measured in an in vitro assay which employs a purified recombinant integrase and a 21-mer duplex oligonucleotide substrate corresponding to the U5 region of the HIV long terminal repeat (LTR) sequence. This assay permits simultaneous measurement of inhibition constants for both 3′-processing and DNA strand transfer. Inhibitory concentrations (i.e., IC50 values) are determined based on an observed 50% reduction in enzymatic activity in cell-free assays. (See e.g., Zhao H., Neamati N., Mazumder A., Sunder S., Pommier Y., ad Burke T. “Arylamide Inhibitors of HIV-1 Integrase” J. Med. Chem. 1997, 40, 1186-1194).
# Compound 76 (an acetylated derivative of Compound 80), Compound 78 (a symmetrical, hydroxylated derivative of Compound 80), and Compound 82 (an acetylated and methylated derivative of Compound 80) have been prepared in accordance with the various aspects of the present invention and have been tested in accordance with the above-described known method of testing HIV-IN inhibition.
row,SMILES,IC50
1,COc1cc(C=CS(=O)(=O)CS(=O)(=O)C=Cc2cc(OC)c(OC(C)=O)c(OC(C)=O)c2)cc(OC(C)=O)c1OC(C)=O [Compound 82],4 µM
2,O=S(=O)(C=Cc1ccc(O)c(O)c1)CS(=O)(=O)C=Cc1ccc(O)c(O)c1 [Compound 78],4 to 6 µM
3,CC(=O)Oc1ccc(C=CS(=O)(=O)CS(=O)(=O)C=Cc2ccc(OC(C)=O)c(OC(C)=O)c2)cc1OC(C)=O [Compound 76],73 to 77 µM
